Measurements taken from patent US6462064B1, “Apoptosis inducing adamantyl derivatives and their usage as anti-cancer agents, especially for cervical cancers and dysplasias” (Galderma Research & Development S.N.C., priority 1996, dated 2002).
Entries after “also recorded” stand apart in the source; their conditions may differ.

Test system: cancer cells
Test: List of active compounds: types of cancers and precancers active against
Assay type: cell-based
Text: As discussed, the adamantyl retinoid derivatives according to the invention which induce apoptosis are useful for treating many different types of cancers.

SMILES	Types of Cancers and Precancers Active Against
COc1ccc(C(=O)Oc2ccc(C(=O)O)c(F)c2)cc1C12CC3CC(CC(C3)C1)C2 [Compound 20, 4-[3-(1-adamantyl)-4-methoxybenzoyloxy]-2-fluorobenzoic acid]	lymphoma, skin
COc1ccc(C(=O)Oc2ccc(C(=O)O)cc2F)cc1C12CC3CC(CC(C3)C1)C2 [Compound 21, 4-hydroxycarbonyl-2-fluorophenyl ester of 3-(1-adamantyl)-4-methoxybenzoic acid]	leukemia
CCc1ccc(-c2ccc3cc(C(=O)O)ccc3c2)cc1C12CC3CC(CC(C3)C1)C2 [Compound 22, 6-[3-(1-adamantyl)-4-ethylphenyl]-2-naphthoic acid]	breast, leukemia, myeloma
O=C(O)c1ccc2cc(-c3ccc(OCCCO)c(C45CC6CC(CC(C6)C4)C5)c3)ccc2c1 [Compound 23, 6-[3-(1-adamantyl)-4-(3-hydroxypropoxy)phenyl]-2-naphthoic acid]	breast, leukemia, lymphoma
NC(=O)c1ccc(-c2ccc3cc(C(=O)O)ccc3c2)cc1C12CC3CC(CC(C3)C1)C2 [Compound 24, 6-[3-(1-adamantyl)-4-aminocarbonylphenyl]-2-naphthoic acid]	leukemia, lymphoma
O=C(CC(=O)C12CC3CC(CC(C3)C1)C2)Nc1ccc(C(=O)O)cc1 [Compound 25, N-(4-carboxyphenyl)-3-(1-adamantyl)-3-oxopropionamide]	lymphoma
COc1ccc(C(O)COc2ccc(C(=O)O)c(O)c2)cc1C12CC3CC(CC(C3)C1)C2 (centres unmarked) [Compound 26, 2-hydroxy-4-{2-[3-(1-adamantyl)-4-methoxyphenyl]-2-hydroxyethoxy}benzoic acid]	lymphoma
O=C(O)c1ccc2cc(-c3ccc(OC[C@@H](O)CO)c(C45CC6CC(CC(C6)C4)C5)c3)ccc2c1 [Compound 27, (S)-6-[3-(1-adamantyl)-4-(2S,3-dihydroxypropoxy)phenyl]-2-naphthoic acid]	leukemia
COc1cc(C(=O)/C=C/c2ccc(C(=O)O)cc2)ccc1C12CC3CC(CC(C3)C1)C2 [Compound 28, (E) 4-{3-oxo-3-[3-methoxy-4-(1-adamantyl)phenyl]prop-1-enyl}benzoic acid]	leukemia
COCCOCOc1ccc(C(=O)/C=C/c2ccc(C(=O)O)cc2)cc1C12CC3CC(CC(C3)C1)C2 [Compound 29, (E) 4-{3-oxo-3-[4-(2-methoxyethoxymethoxy)-3-(1-adamantyl)phenyl]prop-1-enyl}benzoic acid]	brain, leukemia, lung,; also recorded: lymphoma, prostate
NC(=O)CCCCCOc1ccc(/C=C/c2ccc(C(=O)O)cc2)cc1C12CC3CC(CC(C3)C1)C2 [Compound 30, (E) 4-{2-[4-(6-aminocarbonylpentyloxy)-3-(1-adamantyl)phenyl]ethenyl}benzoic acid]	lymphoma, myeloma
COc1ccc(C(=N)Nc2ccc(C(=O)O)cc2)cc1C12CC3CC(CC(C3)C1)C2 [Compound 31, 3-(1-adamantyl)-4-methoxy-N-(4-carboxyphenyl)benzamidine]	leukemia
CCC1OC(=O)C(C)C(OC2CC(C)(OC)C(OC(=O)c3ccc4cc(-c5ccc(OC)c(C67CC8CC(CC(C8)C6)C7)c5)ccc4c3)C(C)O2)C(C)C(OC2OC(C)CC(N(C)C)C2O)C(C)(O)CC(C)C(=O)C(C)C(O)C1(C)O (centres unmarked) [Compound 32, 4″-Erythromycin A ester of 6-[3-(1-adamantyl)-4-methoxyphenyl]2-naphthoic acid]	leukemia, lymphoma
O=C(O)c1ccc(OC(=O)c2ccc(OCC(O)CO)c(C34CC5CC(CC(C5)C3)C4)c2)cc1 (centres unmarked) [Compound 33, 4-carboxyphenyl ester of 3-(1-adamantyl)-4-(2,3-dihydroxyproproxy)benzoic acid]	leukemia, skin
